Measured values as given in paper PMC8534003, “The Chemokine-Based Peptide, CXCL9(74-103), Inhibits Angiogenesis by Blocking Heparan Sulfate Proteoglycan-Mediated Signaling of Multiple Endothelial Growth Factors” (Cancers, 2021).
Where no end group is shown, it is not given here. TAMRA = 5(6)-carboxytetramethylrhodamine

Experiments:
[1] = test system: human microvascular endothelial cells (HMVECs); assay: Endothelial cell proliferation assay (MTT or ATP lite); format: cell-based; settings: EGF, VEGF165 5 ng/mL or FGF-2 3 ng/mL as single stimulus
Experimental: The ability of the CXCL9-derived peptides to inhibit growth factor-induced proliferation of endothelial cells was assessed. HMVECs were seeded at 5 × 10^3 cells/well in EBM™-2 medium containing 1% (v/v) FCS (proliferation medium). After settling of the cells, they were stimulated with EGF, VEGF165 (both 5 ng/mL) or FGF-2 (3 ng/mL) as a single stimulus or in combination with CXCL9(86-103) or CXCL9(74-103) at 0.3 or 3 µM in proliferation medium or left untreated. HMVECs were also treated with 0.3 or 3 µM of CXCL9(74-103) or 3 µM of CXCL9(86-103) alone to assess the effect of CXCL9-derived peptide treatment on spontaneous proliferation. After 3 to 4 days, a 3-(4,5-dimethylthiazol-2-yl)-2,5-diphenyl tetrazolium bromide (MTT) or ATP lite assay was performed. The ATP lite assay was performed according to the manufacturer’s instructions (Perkin Elmer, Waltham, MA). When MTT was used as substrate, the medium was replaced with 200 µL of MTT solution (RPMI without phenol red containing 0.4 g/L MTT) and the cells were incubated at 37 °C and 5% CO2 in the dark for 4 hours. Then, the MTT solution was discarded and the formed formazan crystals were dissolved in 200 µL acidic propanol [0.04 M HCl, 0.1% (v/v) NP-40 in isopropanol] under continuous shaking in the dark for 10 min. The optical densities were measured at 570 nm and 630 nm (reference wavelength).

[2] = test system: human microvascular endothelial cells (HMVECs); assay: xCELLigence chemotaxis assay (HMVEC migration); format: cell-based; settings: EGF 10 ng/mL, FGF-2 30 ng/mL or VEGF165 10 ng/mL in lower chamber
Experimental: To evaluate the effect of the CXCL9-derived peptides on growth factor-induced endothelial cell migration, the xCELLigence® real-time cell analyzer (RTCA DP) system (ACEA Biosciences, Inc.; San Diego, CA, USA) was used. First, 160 µL MCDB131 medium (Gibco) supplemented with 0.4% (v/v) FCS (control medium) or 160 µL control medium with 30 ng/mL FGF-2, 10 ng/mL VEGF165 or 10 ng/mL EGF were added to the lower chamber of a cell invasion/migration (CIM)-Plate (ACEA Biosciences, Inc.). After assembly of the lower and upper chamber, 50 µL of serum-free MCDB131 medium was added in the upper wells. Following equilibration of the plate at 37 °C for 1 h, HMVECs were added in the upper chamber at 4 × 10^4 cells in 100 µL/well. CXCL9(74-103) or CXCL9(86-103) was added together with the cells in the upper compartment at a concentration of 0.3 or 3 µM. The assembled CIM-Plate was left at room temperature for 30 min to allow the cells to settle onto the membrane. Finally, the plate was placed in the instrument at 37 °C to monitor cell migration for 15 h. Cell migration from one compartment to the other was recorded (one recording every minute) as changes in electrical impedance. These changes were converted into cell indices, as a measure of cell migration.

phospho-ERK1/2 = assay: Signal transduction assay, EGF-induced ERK phosphorylation in HMVECs (ELISA); format: cell-based, human; settings: EGF 10 ng/mL, 15 min, compared to control (100%), n ≥ 3
Experimental: HMVECs and MECs were seeded in 6-well plates at 1.25 × 10^5 cells/well in their respective culture medium. Once the cell density reached 70–80% confluency, the cells were starved in serum-free medium overnight. Fifteen minutes prior to stimulation, cells were incubated with various concentrations of CXCL9(74-103) or CXCL9(86-103) in 0.5% (v/v) BSA in MCDB131 or DMEM medium (assay medium for HMVECs and MECs, respectively) at 37 °C. HMVECs and MECs were stimulated with assay medium alone or supplemented with 10 ng/mL EGF or 5 ng/mL murine VEGF165 at 37 °C for 15 or 5 min, respectively. Then, the cells were placed on ice, washed with ice-cold PBS and 90 µL of lysis buffer [1% (v/v) protease inhibitor cocktail, phosphatase inhibitor cocktail 2 and 3 (all Sigma-Aldrich) in 1 mM ethylenediaminetetraacetic acid (EDTA), 0.5% (v/v) Triton™ X-100, 5 mM NaF, 6 M urea in PBS] was added per well. […] The amount of phospho-ERK1/2 in the cell lysates was determined using an ERK1 (Thr202/Tyr204)/ERK2 (Thr185/Tyr187) ELISA duoset (R&D Systems) according to the manufacturer’s instructions. The amount of phosphorylated ERK was normalized to the total protein content in the samples measured by the Pierce™ bicinchoninic acid (BCA) protein assay kit (Thermo Fisher Scientific).

[3] = test system: FGF-2-induced angiogenesis, C57BL/6 mice; assay: In vivo angiogenesis Matrigel plug assay; parameters: species or system mouse; settings: 180 ng FGF-2 alone, day 7
Experimental: Six-to-eight-week-old female C57BL/6 mice were anesthetized with a mixture of 2.5 mg/mL xylazine (V.M.D, Inovet, Arendonk, Belgium) and 37.5 mg/mL ketamine (Dechra, Northwich, UK) in PBS by i.p. injection. A vertical dorsal incision was made and an ALZET osmotic pump (model 1007D, DURECT Corporation, Cupertine, CA, USA) filled with 400 µg/100 µL CXCL9(74-103) or 100 µL PBS was subcutaneously (s.c.) implanted. The incision was closed with a surgical suture. Growth factor-reduced Matrigel (Corning Matrigel Growth Factor (GFR) Basement Membrane Matrix, Phenol Red-Free, LDEV-Free; Corning Life Sciences, Amsterdam, The Netherlands) was s.c. injected in the dorsal flank forming a firm plug (600 µL/plug). The Matrigel was either injected as such (control plugs) or supplemented with 300 µg CXCL9(74-103) and/or 180 ng FGF-2. Seven days later, the mice were sacrificed. Thirty minutes before sacrifice, the mice were i.v. injected with 200 µL (25 mg/kg) FITC-labeled 2000 kDa dextran (Sigma-Aldrich) to quantify vessel formation in the Matrigel plugs. Blood was collected through cardiac puncture into heparinized tubes containing 20 µL heparin (5.000 IE/mL, Leo Pharma, Ballerup, Denmark). The blood was centrifuged at 200 g and 4 °C for 10 min, whereafter the supernatant was centrifuged at 3000 g and 4 °C for 10 min. The collected plasma was stored away from light at 4 °C until analysis. The Matrigel plugs were removed and enzymatically and mechanically digested in 1.2 mL dispase (Corning Life Sciences) using an incubation at 37 °C for 1.5 h and the gentleMACS™ Dissociator (Miltenyi Biotec, Bergisch Gladbach, Germany). The digested Matrigel plugs were filtered through a 70 µm cell strainer, washed with 1.5 mL FACS buffer [2% (v/v) FCS + 2 mM EDTA in PBS] and centrifuged at 300 g and 4 °C for 7 min. The supernatant (SN) was centrifuged again at 300 g and 4 °C for 7 min and the SN was retained away from light at 4 °C until analysis. The pellet was resuspended in 1 mL FACS buffer, the cells were counted and used for flow cytometry. The antibodies used to identify endothelial cells were anti-mouse CD45-APC (clone 30-F11, eBioscience, Thermo Fisher Scientific), anti-mouse CD146-PE (clone ME-9F1) and anti-mouse Pan-endothelial Cell Antigen-BV711 (clone MECA-32) antibodies (both BD Biosciences). Mice experiments were approved by the Ethical Committee of KU Leuven (project number P199/2018).

HMVEC spheroids = assay: Spheroid sprouting assay; format: cell-based, human; settings: FGF-2 10 ng/mL, 16 hours
Experimental: A 1:5 mixture of endothelial cells (4 × 10^4 cells/mL) and methylcellulose (Sigma-Aldrich, Saint Louis, MO, USA; 12 mg/mL in EBM™-2 basal medium) in EBM™-2 cell culture medium was prepared. Drops of 1 × 10^3 HMVECs were plated on a petri dish and allowed to form single spheroids in hanging droplets at 37 °C, 5% CO2 for 24 h. Spheroids were collected, sedimented by centrifugation and resuspended in a mixture of 24 mg/mL methylcellulose in basal EBM™-2, 1 mg/mL collagen type I (BD Biosciences, San Jose, CA, USA), 2.5 mg/mL NaHCO3 and 10 mM NaOH. The suspension was plated in a 96-well plate and the collagen was allowed to polymerize at 37 °C, 5% CO2 for 30 min. Spheroids were left untreated or stimulated with 0.3 or 3 µM of CXCL9(74-103) or 3 µM of CXCL9(86-103) for 15 min prior to addition of 10 ng/mL FGF-2 or 10 ng/mL EGF in EBM™-2 + 3% (v/v) FCS. In some experiments, HMVECs were pretreated with heparinase II (vide infra). After 16 hours, spheroid sprouting was assessed with an inverted Axiovert 200M microscope (Zeiss, Germany) through a 10× objective. The average number of sprouts was calculated and the average sprout length per spheroid was measured using Fiji software.
Sprouting experiments examining the dependency on HS binding for the inhibitory action of CXCL9(74-103) were performed as described above (vide supra). […]

[4] = test system: cell surface HS on HMVECs; assay: Cellular HS binding of TAMRA-labeled CXCL9(74-103), flow cytometry; parameters: species or system human; settings: 1 representative of 3 experiments
Experimental: CXCL9(74-103) binding to cellular HS was assessed via flow cytometry. HMVECs were either left untreated or incubated with 0.75 U/mL heparinase II (Sigma-Aldrich) at 37 °C for 2 h. Cells were harvested and left at room temperature for 1 h to recuperate, they were then placed on ice and centrifuged. After centrifugation (300 g, 4 °C, 7 min) and resuspension in PBS, 1 × 10^5 cells per condition were stained with 3, 0.6 or 0.12 nM TAMRA-labeled CXCL9(74-103). To verify downregulation of HS expression, cells were stained with mouse anti-HS Ab (clone F58-10E4, Cat No 370255-S; Amsbio, Abingdon, UK) and R-PE goat anti-mouse IgM Ab (Cat No 115-116-075; Jackson ImmunoResearch, Westgrove, PA, USA). Flow cytometric analysis was performed using the BD LSRFortessa™ X-20 flow cytometer and FlowJo software (both BD Biosciences).

| Substance | enhancement of proliferation by growth factor alone [1] | enhancement of migration by growth factor alone [2] | phospho-ERK content (phospho-ERK1/2) | CD146+MECA-32+ cell population, FGF-2 compared to control [3] | fluorescence ratio, FGF-2 plug compared to control [3] | number of cells inside plug, FGF-2 compared to control [3] | sprouting in response to FGF-2 alone (HMVEC spheroids) | binding to untreated HMVECs ([4]; 3, 0.6 or 0.12 nM TAMRA-labeled peptide) | binding to heparinase II-treated HMVECs ([4]; heparinase II 0.75 U/mL, 37 °C, 2 h, 3, 0.6 or 0.12 nM) |
| --- | --- | --- | --- | --- | --- | --- | --- | --- | --- |
| EGF: human recombinant EGF (R&D Systems), stimulus | significant enhancement of proliferation | significant enhancement of endothelial cell migration | 247% |  |  |  |  |  |  |
| FGF-2: human recombinant FGF-2 (R&D Systems), stimulus | significant enhancement of proliferation | significant enhancement of endothelial cell migration |  | ~3 fold | doubled the fluorescence ratio compared to the control | ~3 fold | pronounced endothelial sprouting |  |  |
| TAMRA-labeled CXCL9(74-103): CXCL9(74-103) fluorescently labeled at the NH2-terminus with 5(6)-carboxytetramethylrhodamine ({TAMRA}-KKKQKNGKKHQKKKVLKVRKSQRSRQKKTT; UniProt Q07325 96-125, looked up, fragment) |  |  |  |  |  |  |  | bound CXCL9(74-103) in a concentration-dependent manner | bound CXCL9(74-103) less efficiently compared to cells with intact HS |
